Where “and” joins values, the source holds several entries; their conditions need not be identical. Equal values may be shown once.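 Briefly, cells in 96-well plates were exposed to five compound concentrations for 48 h, and endpoints were estimated by linear interpolation. Here, GI50 denotes the concentration required for 50% inhibition of growth. At the TGI there is no net growth.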
Experiments:
Assay in all cases: inhibition of tumour cell growth, NCI panel, 48 h
SNB-19 CNS = system: SNB-19 CNS
BT-549 breast = system: BT-549 breast
OVCAR-5 ovarian = system: OVCAR-5 ovarian
M14 melanoma = system: M14 melanoma
HCT-116 colon = system: HCT-116 colon
786-0 renal = system: 786-0 renal
NCI-H23 lung = system: NCI-H23 lung
DU-145 prostate = system: DU-145 prostate
A549 NSCLC = system: A549 NSCLC
SW-620 colon = system: SW-620 colon
SN12C renal = system: SN12C renal
NCI-H226 lung = system: NCI-H226 lung
SK-OV-3 ovarian = system: SK-OV-3 ovarian
KM12 colon = system: KM12 colon
SF-268 CNS = system: SF-268 CNS
OVCAR-3 ovarian = system: OVCAR-3 ovarian
OVCAR-4 ovarian = system: OVCAR-4 ovarian
PC-3 prostate = system: PC-3 prostate
MDA-MB-231 breast = system: MDA-MB-231 breast
CAKI-1 renal = system: CAKI-1 renal
HS 578T breast = system: HS 578T breast
UACC-62 melanoma = system: UACC-62 melanoma
MOLT-4 leukemia = system: MOLT-4 leukemia
MALME-3M melanoma = system: MALME-3M melanoma
HOP-62 NSCLC = system: HOP-62 NSCLC
LOX IMVI melanoma = system: LOX IMVI melanoma
OVCAR-8 ovarian = system: OVCAR-8 ovarian
SR leukemia = system: SR leukemia
SF-295 CNS = system: SF-295 CNS
U251 CNS = system: U251 CNS
NCI-H522 lung = system: NCI-H522 lung
K-562 leukemia = system: K-562 leukemia
HOP-92 NSCLC = system: HOP-92 NSCLC
COLO 205 colon = system: COLO 205 colon
SK-MEL-5 melanoma = system: SK-MEL-5 melanoma
T-47D breast = system: T-47D breast
MCF7 breast = system: MCF7 breast
SK-MEL-28 melanoma = system: SK-MEL-28 melanoma
ACHN renal = system: ACHN renal
RPMI-8226 leukemia = system: RPMI-8226 leukemia
SK-MEL-2 melanoma = system: SK-MEL-2 melanoma
SF-539 CNS = system: SF-539 CNS
TK-10 renal = system: TK-10 renal
SNB-75 CNS = system: SNB-75 CNS
MDA-MB-435 = system: MDA-MB-435
HT29 colon = system: HT29 colon
IGROV1 ovarian = system: IGROV1 ovarian
EKVX NSCLC = system: EKVX NSCLC
HCT-15 colon = system: HCT-15 colon
MDA-N = system: MDA-N
A498 renal = system: A498 renal
NCI-H460 lung = system: NCI-H460 lung
NCI/ADR-RES ovarian = system: NCI/ADR-RES ovarian
UO-31 renal = system: UO-31 renal
UACC-257 melanoma = system: UACC-257 melanoma
RXF 393 renal = system: RXF 393 renal
HCC-2998 colon = system: HCC-2998 colon
HL-60(TB) leukemia = system: HL-60(TB) leukemia
CCRF-CEM leukemia = system: CCRF-CEM leukemia

With `O=[N+]([O-])c1ccccc1N=Nc1c(O)[nH]c2ccc(S(=O)(=O)O)cc12` the TGI (SNB-19 CNS) was > 100 µM, the TGI (BT-549 breast) was > 100 µM and the TGI (OVCAR-5 ovarian) was > 100 µM. For the same compound, the TGI (M14 melanoma) was > 100 µM, the TGI (HCT-116 colon) was > 100 µM and the TGI (786-0 renal) was > 100 µM. For the same compound, the TGI (NCI-H23 lung) was > 100 µM, the TGI (DU-145 prostate) was > 100 µM and the TGI (A549 NSCLC) was > 100 µM. For the same compound, the TGI (SW-620 colon) was > 100 µM, the TGI (SN12C renal) was > 100 µM and the TGI (NCI-H226 lung) was > 100 µM. The TGI (SK-OV-3 ovarian) was > 100 µM, the TGI (KM12 colon) was > 100 µM and the TGI (SF-268 CNS) was > 100 µM. The TGI (OVCAR-3 ovarian) was > 100 µM, the TGI (OVCAR-4 ovarian) was > 100 µM and the TGI (PC-3 prostate) was > 100 µM. The TGI (MDA-MB-231 breast) was > 100 µM, the TGI (CAKI-1 renal) was > 100 µM and the TGI (HS 578T breast) was > 100 µM. For the same compound, the TGI (UACC-62 melanoma) was > 100 µM, the TGI (MOLT-4 leukemia) was > 100 µM and the TGI (MALME-3M melanoma) was > 100 µM. For the same compound, the TGI (HOP-62 NSCLC) was > 100 µM, the TGI (LOX IMVI melanoma) was > 100 µM and the TGI (OVCAR-8 ovarian) was > 100 µM. The TGI (SR leukemia) was > 100 µM, the TGI (SF-295 CNS) was > 100 µM and the TGI (U251 CNS) was > 100 µM. For the same compound, the TGI (NCI-H522 lung) was > 100 µM, the TGI (K-562 leukemia) was > 100 µM and the TGI (HOP-92 NSCLC) was > 100 µM. For the same compound, the TGI (COLO 205 colon) was > 100 µM, the TGI (SK-MEL-5 melanoma) was > 100 µM and the TGI (T-47D breast) was > 100 µM. For the same compound, the TGI (MCF7 breast) was > 100 µM, the TGI (SK-MEL-28 melanoma) was > 100 µM and the TGI (ACHN renal) was > 100 µM. For the same compound, the TGI (RPMI-8226 leukemia) was > 100 µM, the TGI (SK-MEL-2 melanoma) was > 100 µM and the TGI (SF-539 CNS) was > 100 µM. For the same compound, the TGI (TK-10 renal) was > 100 µM, the TGI (SNB-75 CNS) was > 100 µM and the TGI (MDA-MB-435) was > 100 µM. For the same compound, the TGI (HT29 colon) was > 100 µM, the TGI (IGROV1 ovarian) was > 100 µM and the TGI (EKVX NSCLC) was > 100 µM. The TGI (HCT-15 colon) was > 100 µM, the TGI (MDA-N) was > 100 µM and the TGI (A498 renal) was > 100 µM. For the same compound, the TGI (NCI-H460 lung) was > 100 µM, the TGI (NCI/ADR-RES ovarian) was > 100 µM and the TGI (UO-31 renal) was > 100 µM. The TGI (UACC-257 melanoma) was > 100 µM and the TGI (RXF 393 renal) was > 100 µM.
In the case of `CN1CCN(c2ccc3[nH]c(C4=C(O)c5nc(CCl)n(C)c5C(=O)C4=O)nc3n2)CC1`, the GI50 (SNB-19 CNS) is reported as 11.8 µM, the TGI (SNB-19 CNS) is reported as 16.7 µM and 32.6 µM and the GI50 (BT-549 breast) is reported as 17.4 µM. For the same compound, the TGI (BT-549 breast) was 19.3 µM and 40.4 µM, the GI50 (OVCAR-5 ovarian) was 20 µM and the TGI (OVCAR-5 ovarian) was 34.5 µM and 52.7 µM. For the same compound, the GI50 (M14 melanoma) was 19.6 µM, the TGI (M14 melanoma) was 20.1 µM and 52.2 µM and the GI50 (HCT-116 colon) was 15.2 µM. For the same compound, the TGI (HCT-116 colon) was 16.1 µM and > 100 µM, the GI50 (786-0 renal) was 6.05 µM and the TGI (786-0 renal) was 50 µM and > 100 µM. The GI50 (NCI-H23 lung) was 18.9 µM, the TGI (NCI-H23 lung) was 30.4 µM and 44.3 µM and the GI50 (DU-145 prostate) was 21.9 µM. For the same compound, the TGI (DU-145 prostate) was 22.4 µM and 67 µM, the TGI (A549 NSCLC) was 50 µM and > 100 µM and the GI50 (SW-620 colon) was 3.61 µM. For the same compound, the TGI (SW-620 colon) was 50 µM and > 100 µM, the GI50 (SN12C renal) was 16.9 µM and the TGI (SN12C renal) was 20.5 µM and > 100 µM. The GI50 (NCI-H226 lung) was 18.3 µM, the TGI (NCI-H226 lung) was 36.2 µM and 37.7 µM and the GI50 (SK-OV-3 ovarian) was 19.8 µM. For the same compound, the TGI (SK-OV-3 ovarian) was 50 µM and 51.6 µM, the GI50 (KM12 colon) was 15.9 µM and the TGI (KM12 colon) was 21 µM and 35.9 µM. The TGI (SF-268 CNS) was 49.1 µM, the TGI (OVCAR-3 ovarian) was 31.3 µM and 68.6 µM and the TGI (OVCAR-4 ovarian) was 44.7 µM and 33.7 µM. The GI50 (PC-3 prostate) was 11.7 µM, the TGI (PC-3 prostate) was 50 µM and 29.1 µM and the GI50 (MDA-MB-231 breast) was 3.99 µM. For the same compound, the TGI (MDA-MB-231 breast) was 25 µM and 14.8 µM, the GI50 (CAKI-1 renal) was 24.2 µM and the TGI (CAKI-1 renal) was 37.1 µM and 74.4 µM. It also gave a TGI (HS 578T breast) of 75.5 µM, a TGI (HCC-2998 colon) of 21.4 µM and a GI50 (UACC-62 melanoma) of 2.46 µM. The TGI (UACC-62 melanoma) was 19.4 µM and 7.37 µM, the GI50 (MOLT-4 leukemia) was 2.25 µM and the TGI (MOLT-4 leukemia) was 50 µM and 7.68 µM. For the same compound, the GI50 (HL-60(TB) leukemia) was 2.87 µM, the TGI (HL-60(TB) leukemia) was > 50 µM and 8.97 µM and the GI50 (MALME-3M melanoma) was 13 µM. The TGI (MALME-3M melanoma) was 11.4 µM and 30 µM, the GI50 (HOP-62 NSCLC) was 20.7 µM and the TGI (HOP-62 NSCLC) was 19.7 µM and 53.5 µM. The GI50 (LOX IMVI melanoma) was 3.07 µM, the TGI (LOX IMVI melanoma) was 15.2 µM and 7.43 µM and the GI50 (OVCAR-8 ovarian) was 4.83 µM. The TGI (OVCAR-8 ovarian) was 16.2 µM and 29.2 µM, the TGI (SR leukemia) was 50 µM and the GI50 (SF-295 CNS) was 24 µM. The TGI (SF-295 CNS) was 50 µM and 56.3 µM, the GI50 (U251 CNS) was 2.03 µM and the TGI (U251 CNS) was 16.3 µM and 4.12 µM. The GI50 (NCI-H522 lung) was 3.54 µM, the TGI (NCI-H522 lung) was 3.29 µM and 12.2 µM and the GI50 (K-562 leukemia) was 2.84 µM. For the same compound, the TGI (K-562 leukemia) was 50 µM and > 100 µM, the GI50 (COLO 205 colon) was 1.79 µM and the TGI (COLO 205 colon) was 28.1 µM and 3.62 µM. The TGI (SK-MEL-5 melanoma) was 50 µM, the GI50 (T-47D breast) was 2.15 µM and the TGI (T-47D breast) was 3.99 µM and 6.95 µM. For the same compound, the TGI (MCF7 breast) was 18.5 µM, the GI50 (SK-MEL-28 melanoma) was 16.1 µM and the TGI (SK-MEL-28 melanoma) was 50 µM and 34.8 µM. For the same compound, the GI50 (ACHN renal) was 5.13 µM, the TGI (ACHN renal) was 30.7 µM and 43.1 µM and the GI50 (RPMI-8226 leukemia) was 3.14 µM. The TGI (RPMI-8226 leukemia) was 50 µM and 15.2 µM, the TGI (SK-MEL-2 melanoma) was 23.5 µM and the GI50 (SF-539 CNS) was 2.17 µM. For the same compound, the TGI (SNB-75 CNS) was 18 µM, the GI50 (MDA-MB-435) was 12.6 µM and the TGI (MDA-MB-435) was 19.3 µM and 30.8 µM. For the same compound, the GI50 (HT29 colon) was 13.7 µM, the TGI (HT29 colon) was 25.9 µM and 37.1 µM and the GI50 (IGROV1 ovarian) was 24.5 µM. For the same compound, the TGI (IGROV1 ovarian) was 16 µM and 47.9 µM, the GI50 (EKVX NSCLC) was 15.9 µM and the TGI (EKVX NSCLC) was 36.9 µM and 40.1 µM. For the same compound, the TGI (HCT-15 colon) was 50 µM and > 100 µM, the GI50 (MDA-N) was 26.5 µM and the TGI (MDA-N) was 17.4 µM and > 100 µM. The TGI (A498 renal) was 22.1 µM, the GI50 (CCRF-CEM leukemia) was 15 µM and the TGI (CCRF-CEM leukemia) was > 50 µM and 36.4 µM. The TGI (NCI-H460 lung) was 49.3 µM, the GI50 (NCI/ADR-RES ovarian) was 88.6 µM and the TGI (NCI/ADR-RES ovarian) was > 100 µM. The GI50 (UO-31 renal) was 21.8 µM, the TGI (UO-31 renal) was 13.3 µM and > 100 µM and the TGI (UACC-257 melanoma) was 31.9 µM. The GI50 (RXF 393 renal) was 3.49 µM and the TGI (RXF 393 renal) was 9.92 µM and 16.6 µM.

Reference: PubChem BioAssay (NCI)
